Laboratory results published in article PMC12534982 (Journal of Experimental & Clinical Cancer Research : CR, 2025).

How the values were obtained:
Format in all cases: cell-based, human
[1] = tested on: healthy fibroblasts and keratinocytes; assay: Cell viability / morphology in healthy cells; conditions: 25 µM, 48 h
From the text: Brightfield images were captured using a Leica DMi8 microscope with a 10X or 20X objective (HC PL FLUOTAR 10X/0.45 or 20X/0.75) equipped with a Leica DFC9000GT camera, and processed with a Leica Application Suite X (LAS X) Life Science Microscope Software (v3.5.5.19976, RRID:SCR_013673).

FBS-starved cancer cells = assay: Serum starvation of cancer cells (CellTiter-Glo); conditions: 25 µM, 24 h, FBS-free
Experimental: Cancer cells (7.5 × 10^3) were cultured in a 96-well plate in DMEM (fortified with 10% FBS) for 24 h. Subsequently, the cells were subjected to serum starvation (FBS-free DMEM) and treated with either DMSO or NK-A 17E-233I (25 µM) for an additional 24 h. Cell proliferation was measured using the CellTiter-Glo reagent as previously described.

colorectal cancer cells [2] = assay: RT-qPCR; conditions: 25 µM, 48 h
Experimental: Cancer cells (0.8 × 10^6) were cultured in 60-mm Petri dishes and treated for 48 h with DMSO or NK-A 17E-233I (25 µM). The pellets were collected, and the total RNA was isolated using TRI Reagent Solution (#T9424; Sigma-Aldrich). The concentration and purity of RNA samples were assessed using a Nanodrop (Nanodrop ND-1000 spectrophotometer, Thermo Fisher) and stored at -80°C. Complementary DNA (cDNA) was generated using MultiScribe Reverse Transcriptase (#A25776; ThermoFisher Scientific), and the resulting cDNA was diluted and analyzed by qPCR using the StepOnePlus Real-Time PCR System (Applied Biosystems) with Power UP SYBR Green Master Mix (#A25741; ThermoFisher Scientific). β-actin was used as the endogenous control gene, and the fold change was calculated using the 2^−ΔΔCT method. Data processing was conducted using StepOnePlus Software for Windows, v2.3. All primer sequences were designed using the Primer 3 Plus software, validated by the Primer-BLAST tool, and submitted to Integrated DNA Technologies (IDT, Madrid, Spain). The primer sequences utilized in this study are listed below: […]

colorectal cancer cells [3] = assay: Cleaved caspase-3 by flow cytometry; conditions: 25 µM, 48 h
Experimental: Cancer cells (3 × 10^4) were cultured in 48-well plates and treated with DMSO or NK-A 17E-233I (25 µM) for 48 h. Following treatment, the cells were harvested, and the supernatant was discarded. Cell pellets were resuspended in 4% methanol-free paraformaldehyde (PFA, #28908; Thermo Fisher Scientific) while vortexing and incubated in the dark at room temperature for 15 min. One milliliter of PBS was added to all tubes, followed by centrifugation at 500 × g for 5 min. The supernatant was discarded, and the pellets were permeabilized using 90% cold methanol with incubation on ice for 10 min. Subsequently, 1 mL of 0.5% BSA (#A3059; Sigma-Aldrich) was added, and the samples were centrifuged at 500 × g for 5 min. The supernatant was discarded, and the pellets were resuspended in 0.5% BSA. The anti–caspase-3 (p17, Cleaved-Asp175) primary antibody (#9661; Cell Signaling, dilution 1:800) was used to incubate samples at room temperature for 1 h. Afterwards, 0.5% BSA was added, and the tubes were centrifuged at 500 × g for 5 min. The supernatant was discarded, and the pellets were resuspended in 0.5% BSA. The samples were then incubated with F(ab')2-Goat anti-Rabbit IgG (H + L) Cross-Adsorbed Secondary Antibody, Alexa Fluor 633 (#A-21072; Invitrogen, dilution 1:1000) in the dark at room temperature for 30 min. […]

SW620 cells [4] = assay: Mitochondrial respiration (OCR) in intact cells; conditions: 24 h
Experimental: Oxygen consumption rate (OCR) was measured using a high-resolution respirometer (Oxygraph-2k, Oroboros Instruments, Innsbruck, Austria). SW620 cells (2.2 × 10^6) were cultured in 100-mm Petri dishes and treated with DMSO or NK-A 17E-233I (25 µM) for 24 h. Cells were harvested at 80% confluency using 0.25% trypsin/EDTA and resuspended in complete DMEM at a concentration of 5 × 10^5 cells/mL. The cells were subsequently analyzed in two 2 mL Oxygraph chambers. Real-time measurements of OCR were conducted at 37 °C under basal conditions and following the sequential addition of inhibitors targeting various mitochondrial respiratory complexes: oligomycin (2.5 μM) to inhibit complex V (to assess ATP-linked respiration and leak rate), carbonyl cyanide-p-trifluoromethoxyphenylhydrazone (FCCP) with stepwise titration in 0.5 μM increments (to evaluate maximal electron transport system respiratory capacity and reserve capacity), and rotenone (0.5 μM) and antimycin A (2.5 μM) to inhibit complex I and complex III, respectively (to measure non-mitochondrial oxygen consumption). The values of OCR were normalized to mitochondrial DNA copy number, which was quantified by qPCR using the primers referenced above. Data analysis was performed using DatLab7 (Oroboros, Austria) software.

SW620 cells [5] = assay: Complex I- and complex II-dependent respiration (permeabilized cells); conditions: 25 µM, 24 h
Experimental: Following treatment, cells were detached using trypsin–EDTA, washed with PBS, and resuspended in MiR05 media (composed of 110 mM sucrose, 60 mM potassium-lactobionate, 0.5 mM EGTA, 3 mM MgCl2·6H2O, 20 mM taurine, 10 mM KH2PO4, 20 mM HEPES adjusted to pH 7.1 with KOH at 37 °C, and 1 g/L BSA) at a concentration of 5 × 10^5 cells/mL. The cells were then transferred into 2 mL Oxygraph chambers for real-time measurement of OCR. Initial permeabilization was achieved using 7 μg of digitonin, followed by the sequential addition of substrates and inhibitors: 5 mM ADP, 2 mM malate, 10 μM cytochrome c, 5 mM pyruvate, 10 mM glutamate, 10 mM succinate, 0.5 μM rotenone, and 2.5 μM antimycin A. Mitochondrial membrane integrity was confirmed through the addition of cytochrome c (10 μM), with observed changes in OCR remaining below 10%. Complex I-mediated respiration was evaluated following the addition of complex I substrates (malate/pyruvate/glutamate), while complex II-mediated respiration was assessed in the presence of the complex II substrate (succinate) and the complex I inhibitor (rotenone). Residual oxygen consumption after the addition of antimycin A was subtracted from all the results to yield mitochondria-specific rates. […] Oxygen consumption rates were expressed as picomoles (pmol) per second per million cells (Mill) and normalized to the mitochondrial copy number in each sample.

## COc1cc(C)c(Oc2cc(C)cc(O)c2O)c(O)c1 [NK-A 17E-233I]
[1]
  cytotoxic effects in healthy cells: no similar effects were observed
FBS-starved cancer cells
  effect on starved cancer cells: no significant effect
Colorectal cancer cells [2]
  mRNA expression levels of POLD1 and POLD2: reductions
Colorectal cancer cells [3]
  active caspase-3 staining: significantly increased
SW620 cells [4]; 25 µM
  maximal respiration: significantly decreased
SW620 cells [4]; NK-A 17E-233I 25 µM, Brequinar 100 µM
  basal and ATP-linked respiration in intact cells: retained basal respiration
SW620 cells [5]
  OCR supported by complex I and II substrates: did not alter
